What all share (experiment): Antibacterial action, minimum inhibitory concentration (MIC), agar method on Iso-sensitest agar
What all share (type): cell-based

Experiment [1] concerns Staph. 133. An excerpt:
(§1) The agar solution method was used for determining the antibacterial action, an Iso-sensitest agar being used and the minimum inhibitory concentration (MIC) of the sample being expressed in μg/ml of the nutrient medium (Table).

The test system of experiment [2] is Staph. 24455.
Excerpt: as §1

For experiment [3], the system named is Staph. E 25185.
Excerpt: as §1

This is an account of results in patent US4863916A, “Substituted 6-hydroxymethyl-carbapenem antibiotics” (Bayer Aktiengesellschaft, priority 1986, dated 1989).

Take `COC(=O)[C@@H](O)[C@H]1C(=O)N2C(C(=O)O)=C(Sc3ccncc3)C[C@H]12` [Example 14, Sodium (5R,6S)-6-[(1S)-1-hydroxy-1-methoxycarbonyl]methyl-7-oxo-3-(4-pyridinylthio)-1-azabicyclo[3.2.0]hept-2encarboxylate]: the MIC in experiment [1] came out at 0.5 µg/mL; in experiment [2], 0.5 µg/mL; in experiment [3] it was 1 µg/mL.

Usually MIC stands for the least concentration at which growth counts as inhibited. Read a high MIC as weaker potency.
